The target in data set [1] is T1, PsGK (Pseudoalteromonas sp. AS-131, UniProt H7CHS4, C325S).
T1 construct: gene glk; full length, cloned in pET-16b, expressed in E. coli BL21 (DE3), purified by ammonium sulfate and anion exchange (no tag mentioned); about 35 kDa subunit, 79 kDa homodimer by gel filtration
Description: G6PD-coupled NADPH assay at […] nm, Lineweaver-Burk. Format: biochemical. As to conditions: 1, 25 and 40 °C.

The target of data set [2] is T2, EcGK (Escherichia coli, UniProt P0A6V8).
T2 construct: gene glk; full length, cloned in pET-16b, expressed in E. coli BL21 (DE3), purified by ammonium sulfate and anion exchange (no tag mentioned); about 35 kDa subunit, 59 kDa homodimer by gel filtration
T2 sequence (P0A6V8 2-321): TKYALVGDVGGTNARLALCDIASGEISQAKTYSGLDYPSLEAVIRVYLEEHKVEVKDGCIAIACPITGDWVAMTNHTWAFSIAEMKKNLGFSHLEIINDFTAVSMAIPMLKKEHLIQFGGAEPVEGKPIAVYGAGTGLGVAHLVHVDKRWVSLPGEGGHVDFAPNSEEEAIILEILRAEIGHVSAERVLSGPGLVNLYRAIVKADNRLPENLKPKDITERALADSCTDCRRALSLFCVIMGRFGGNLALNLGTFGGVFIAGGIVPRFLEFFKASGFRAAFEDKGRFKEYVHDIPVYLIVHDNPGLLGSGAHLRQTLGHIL
The data set is described as follows: G6PD-coupled NADPH assay at […] nm, Lineweaver-Burk. It is filed as biochemical. As to conditions: 25 °C, pH 7.6, 20 mM Tris-HCl, 10 mM MgCl2, co-substrate glucose, 1 mM DTT; also measured at 1 and 40 °C.

Data set [3] deals with the molecule itself. The data set is described as follows: SEC; gel filtration on HiLoad 16/60 Superdex 200 prep grade; molecular weights estimated and compared with about 35 kDa by SDS/PAGE; monomers to dimer.
Substrate in data set [4]: Nc1ncnc2c1ncn2[C@@H]1O[C@H](COP(=O)(O)OP(=O)(O)OP(=O)(O)O)[C@@H](O)[C@H]1O
Description: purified protein. As to conditions: 25 °C, pH 7.6, 20 mM Tris-HCl, 10 mM MgCl2, co-substrate glucose, 1 mM DTT, also measured at 1 and 40 °C. It is filed as biochemical, Pseudoalteromonas sp. AS-131.

Consider four molecules from PMC13147314 (The Febs Journal, 2025).

T1 sequence (H7CHS4 entry or part of it C325S): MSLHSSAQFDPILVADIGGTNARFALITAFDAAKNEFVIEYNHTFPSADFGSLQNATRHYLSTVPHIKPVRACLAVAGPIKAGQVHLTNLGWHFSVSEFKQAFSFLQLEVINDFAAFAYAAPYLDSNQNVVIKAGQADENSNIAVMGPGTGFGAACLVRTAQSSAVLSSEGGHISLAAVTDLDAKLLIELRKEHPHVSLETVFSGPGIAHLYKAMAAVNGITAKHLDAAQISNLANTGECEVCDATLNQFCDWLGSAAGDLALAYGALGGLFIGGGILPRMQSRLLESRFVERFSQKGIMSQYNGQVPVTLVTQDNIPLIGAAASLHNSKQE

`OC[C@H]1OC(O)[C@H](O)[C@@H](O)[C@@H]1O` (stereo partly drawn) [glucose]: in data set [1] (pH 7.6, 10 mM MgCl2, co-substrate ATP), the K m result is reported as “the catalytic efficiency (k cat/K m) of C325S exceeded that of WT”.
`Nc1ncnc2c1ncn2[C@@H]1O[C@H](COP(=O)(O)OP(=O)(O)OP(=O)(O)O)[C@@H](O)[C@H]1O` [ATP]: the K m entry in data set [1] (pH 7.6, 10 mM MgCl2, co-substrate glucose) was “the catalytic efficiency (k cat/K m) of C325S exceeded that of WT”; in data set [2] it was 1110 ± 80 µM.

B1: glucokinase from Pseudoalteromonas sp. AS-131 wild-type (enzyme, UniProt H7CHS4 1-332, looked up)
chain: MSLHSSAQFDPILVADIGGTNARFALITAFDAAKNEFVIEYNHTFPSADFGSLQNATRHYLSTVPHIKPVRACLAVAGPIKAGQVHLTNLGWHFSVSEFKQAFSFLQLEVINDFAAFAYAAPYLDSNQNVVIKAGQADENSNIAVMGPGTGFGAACLVRTAQSSAVLSSEGGHISLAAVTDLDAKLLIELRKEHPHVSLETVFSGPGIAHLYKAMAAVNGITAKHLDAAQISNLANTGECEVCDATLNQFCDWLGSAAGDLALAYGALGGLFIGGGILPRMQSRLLESRFVERFSQKGIMSQYNGQVPVTLVTQDNIPLIGAAACLHNSKQE
notes: glucokinase (PsGK) of Pseudoalteromonas sp; AS-131, UniProt H7CHS4; amplified with primers that carry the start and the stop codon and cloned into pET-16b; also called PsGK; PsGK WT; source: E. coli BL21 (DE3), purified (ammonium sulfate fractionation, anion exchange HiTrap Q HP)
In the case of B1, the “stoichiometry N” value in data set [3] is 2. In data set [4], the Km was 1550 ± 170 µM.

B2: glucokinase from Escherichia coli wild-type (enzyme, Escherichia coli K-12)
chain: T2 sequence (P0A6V8 2-321)
notes: glucokinase (EcGK) of Escherichia coli K-12, encoded by glk, UniProt P0A6V8; the gene was amplified from genomic DNA and cloned into pET-16b; also called EcGK; EcGK WT; source: E. coli BL21 (DE3), purified (ammonium sulfate fractionation, anion exchange HiTrap Q HP)
Consider B2, for which, in data set [3], the “stoichiometry N” value is 2.
